What was measured:
Atrium = experiment: Effects on the effective refractory period, atrium (anesthetized beagles, vagal nerve stimulation, S1-S2 extrastimulus); format: in vivo; conditions: 0.3 mg/kg intravenously, from 5 min after administration, basic cycle length 300 msec, bilateral vagal nerve stimulation, ERP after minus before drug
Experimental: (§1) Effects on the Effective Refractory Period
(§2) Beagles were anesthetized with pentobarbital sodium and thoracotomy was done along the median line under a respirator and the incision was made on the pericardium to expose the heart. ECG was recorded using bipolar electrodes attached to the surface of the right atrial free wall, right atrial auricle, and right ventricular free wall. The vagal nerves were stimulated using an electrostimulation device with Nichrome wires inserted into the vagal nerves in the neck bilaterally. The conditions for electrostimulation to the vagal nerves were set such that the RR intervals on ECG were prolonged by about 100 msec compared with those before the stimulation was started.
(§3) Atrial and ventricular effective refractory periods were determined by S1-S2 extrastimulus technique at basic cycle length of 300 msec during bilateral vagal nerve stimulation, using programmable electric stimulator. A train of 10 basic stimuli (S1) was followed by a premature extrastimulus (S2) at 2 times diastolic threshold.
(§4) For evaluation of drug effects, the atrial and ventricular effective refractory periods were determined before drug administration, then respective compound was administrated intravenously at the dose of 0.3 mg/kg, and the atrial and ventricular effective refactory periods were determined from 5 min after the administration.
(§5) The results were shown as the prolongation time on the atrial and ventricular effective refractory periods, i.e. [effective refractory period after drug administration]−[effective refactory period before drug administration] (msec).

Ventricle = experiment: Effects on the effective refractory period, ventricle (anesthetized beagles, vagal nerve stimulation, S1-S2 extrastimulus); format: in vivo; conditions: 0.3 mg/kg intravenously, from 5 min after administration, basic cycle length 300 msec, bilateral vagal nerve stimulation, ERP after minus before drug
Experimental: as §1, §2, §3, §4, §5

SMILES	prolongation time on the effective refractory period (msec) Atrium (Atrium) [ms]	prolongation time on the effective refractory period (msec) Ventricle (Ventricle) [ms]
CC1(C)Oc2ccc(C(N)=O)cc2[C@H](NCCc2ccccc2)[C@H]1O [compound 3]	21	4
Cc1ccc2c(c1)[C@H](NCCc1ccc(Cl)cc1)[C@@H](O)C(C)(C)O2 [compound 2]	23	4
CC1(C)Oc2cc([N+](=O)[O-])ccc2[C@H](NCCc2ccccc2)[C@H]1O [compound 6]	36	9
CC1(C)Oc2ccc(C(N)=O)cc2[C@H](NCCc2ccc(F)cc2)[C@H]1O [compound 4]	23	-10

Reference: patent US7041700B2, “Substituted benzopyran derivatives against arrhythmia” (Nissan Chemical Industries, Ltd., priority 2001, dated 2006)
